We go through three compounds from patent publication US8242055B2, “Herbicidally and insecticidally active phenyl-substituted pyridazinones” (Bayer Cropscience AG, priority 2008, dated 2012).

In data set [1] the test system is eggs of the tobacco bud worm (Heliothis virescens). Description: Heliothis virescens test (spray treatment). The class given is in vivo. The note with it: spray treatment of soybean leaves, application rate 500 g/ha, after 7 days; 100% = all eggs killed. The protocol:
[table] To produce a suitable preparation of active compound, 1 part by weight of active compound is mixed with the stated amounts of solvents and emulsifier, and the concentrate is diluted with emulsifier-containing water to the desired concentration. Soybean leaves (Glycine max.) are sprayed with an active compound preparation of the desired concentration and, after drying, populated with eggs of the tobacco bud worm (Heliothis virescens). After 7 days, the effect in % is determined. 100% means that all the eggs have been killed; 0% means that none of the eggs have been killed.

A further data set concerns Meloidogyne incognita. Description: Meloidogyne incognita test (MELGIN). The data set is classed as in vivo. The note with it: application rate 20 ppm, lettuce roots; 100% = no galls formed. The method, then:
[table] To produce a suitable preparation of active compound, 1 part by weight of active compound is mixed with the stated amounts of solvents and emulsifier, and the concentrate is diluted with water to the desired concentration. Containers are filled with sand, solution of active compound, Meloidogyne incognita egg/larvae suspension and lettuce seeds. The lettuce seeds germinate and the plants develop. On the roots, galls are formed. After the desired period of time, the nematicidal activity is determined in % by the formation of galls. 100% means that no galls are formed; 0% means that the number of galls on the treated plants corresponds to that of the untreated control.

As a reminder, the melting point is the temperature of the solid-liquid transition. Take `Cn1ncc(O)c(-c2ccc(Cl)c(Cl)c2)c1=O` [I-1-a-4, 4-(3,4-dichlorophenyl)-5-hydroxy-2-methyl-3(2H)-pyridazinone]: the melting point is 315 °C.
Regarding `CC(C)(C)n1ncc(O)c(-c2ccc(Cl)cc2Cl)c1=O` [I-1-a-5], the “effect in % (eggs killed)” value in data set [1] is given as “at least 80%”.
For the compound `CC(C)(C)n1ncc(O)c(-c2cc(-c3ccc(Cl)cc3)ccc2Cl)c1=O` [I-1-a-10], the “nematicidal activity in % by the formation of galls” value with Meloidogyne incognita is “at least 80%”.
